Measured values as given in ChEMBL document CHEMBL3797178, “Synthesis, antimycobacterial and antibacterial activity of 1-(6-amino-3,5-difluoropyridin-2-yl)fluoroquinolone derivatives containing an oxime functional moiety” (2016).
≈ marks a conversion by molar mass, not a printed value.

Experiments:
Format in all cases: functional
[1] = system: Mycobacterium tuberculosis; assay: Antimycobacterial activity against Mycobacterium tuberculosis H37Rv ATCC 27294 after 3 days by microplate Alamar Blue assay; conditions: H37Rv ATCC 27294, 72 h
Escherichia coli [2] = assay: Antibacterial activity against Escherichia coli ATCC 25922 after 18 to 24 hrs by CLSI M100-S11 method
Escherichia coli [3] = assay: Antibacterial activity against extended-spectrum beta-lactamase-producing Escherichia coli 14-1 after 18 to 24 hrs by CLSI M100-S11 method
Escherichia coli [4] = assay: Antibacterial activity against extended-spectrum beta-lactamase-producing Escherichia coli 14-2 after 18 to 24 hrs by CLSI M100-S11 method
Escherichia coli [5] = assay: Antibacterial activity against Escherichia coli 14-1 after 18 to 24 hrs by CLSI M100-S11 method
Escherichia coli [6] = assay: Antibacterial activity against Escherichia coli 14-2 after 18 to 24 hrs by CLSI M100-S11 method
Klebsiella pneumoniae [7] = assay: Antibacterial activity against extended-spectrum beta-lactamase-producing Klebsiella pneumoniae 14-17 after 18 to 24 hrs by CLSI M100-S11 method
Klebsiella pneumoniae [8] = assay: Antibacterial activity against extended-spectrum beta-lactamase-producing Klebsiella pneumoniae 14-18 after 18 to 24 hrs by CLSI M100-S11 method
Klebsiella pneumoniae [9] = assay: Antibacterial activity against extended-spectrum beta-lactamase-producing Klebsiella pneumoniae 14-19 after 18 to 24 hrs by CLSI M100-S11 method
Klebsiella pneumoniae [10] = assay: Antibacterial activity against Klebsiella pneumoniae 14-1 after 18 to 24 hrs by CLSI M100-S11 method
Klebsiella pneumoniae [11] = assay: Antibacterial activity against Klebsiella pneumoniae 14-2 after 18 to 24 hrs by CLSI M100-S11 method
Klebsiella pneumoniae [12] = assay: Antibacterial activity against Klebsiella pneumoniae 14-3 after 18 to 24 hrs by CLSI M100-S11 method
Klebsiella pneumoniae [13] = assay: Antibacterial activity against Klebsiella pneumoniae 14-4 after 18 to 24 hrs by CLSI M100-S11 method
Pseudomonas aeruginosa [14] = assay: Antibacterial activity against Pseudomonas aeruginosa ATCC 27853 after 18 to 24 hrs by CLSI M100-S11 method
Pseudomonas aeruginosa [15] = assay: Antibacterial activity against Pseudomonas aeruginosa 14-9 after 18 to 24 hrs by CLSI M100-S11 method
Pseudomonas aeruginosa [16] = assay: Antibacterial activity against Pseudomonas aeruginosa 14-14 after 18 to 24 hrs by CLSI M100-S11 method
Pseudomonas aeruginosa [17] = assay: Antibacterial activity against Pseudomonas aeruginosa 14-15 after 18 to 24 hrs by CLSI M100-S11 method
Pseudomonas aeruginosa [18] = assay: Antibacterial activity against Pseudomonas aeruginosa 14-16 after 18 to 24 hrs by CLSI M100-S11 method
Staphylococcus aureus [19] = assay: Antibacterial activity against Staphylococcus aureus CMCC 26003 after 18 to 24 hrs by CLSI M100-S11 method
Staphylococcus aureus [20] = assay: Antibacterial activity against methicillin-sensitive Staphylococcus aureus 14-2 after 18 to 24 hrs by CLSI M100-S11 method
Staphylococcus aureus [21] = assay: Antibacterial activity against methicillin-sensitive Staphylococcus aureus 14-3 after 18 to 24 hrs by CLSI M100-S11 method
Staphylococcus aureus [22] = assay: Antibacterial activity against methicillin-sensitive Staphylococcus aureus 14-4 after 18 to 24 hrs by CLSI M100-S11 method
Staphylococcus aureus [23] = assay: Antibacterial activity against methicillin-resistant Staphylococcus aureus 14-4 after 18 to 24 hrs by CLSI M100-S11 method
Staphylococcus aureus [24] = assay: Antibacterial activity against methicillin-resistant Staphylococcus aureus 14-5 after 18 to 24 hrs by CLSI M100-S11 method
[25] = system: Staphylococcus epidermidis; assay: Antibacterial activity against methicillin-sensitive Staphylococcus epidermidis 14-2 after 18 to 24 hrs by CLSI M100-S11 method
[26] = system: Staphylococcus epidermidis; assay: Antibacterial activity against methicillin-sensitive Staphylococcus epidermidis 14-4 after 18 to 24 hrs by CLSI M100-S11 method
[27] = system: Staphylococcus epidermidis; assay: Antibacterial activity against methicillin-sensitive Staphylococcus epidermidis 14-6 after 18 to 24 hrs by CLSI M100-S11 method
[28] = system: Staphylococcus epidermidis; assay: Antibacterial activity against methicillin-resistant Staphylococcus epidermidis 14-22 after 18 to 24 hrs by CLSI M100-S11 method
[29] = system: Staphylococcus epidermidis; assay: Antibacterial activity against methicillin-resistant Staphylococcus epidermidis 14-37 after 18 to 24 hrs by CLSI M100-S11 method
[30] = system: Staphylococcus epidermidis; assay: Antibacterial activity against methicillin-resistant Staphylococcus epidermidis 14-39 after 18 to 24 hrs by CLSI M100-S11 method
Streptococcus pneumoniae = assay: Antibacterial activity against Streptococcus pneumoniae ATCC 19615 after 18 to 24 hrs by CLSI M100-S11 method
Enterococcus faecium [31] = assay: Antibacterial activity against Enterococcus faecium 14-1 after 18 to 24 hrs by CLSI M100-S11 method
Enterococcus faecium [32] = assay: Antibacterial activity against Enterococcus faecium 14-2 after 18 to 24 hrs by CLSI M100-S11 method
Enterococcus faecalis [33] = assay: Antibacterial activity against Enterococcus faecalis 14-1 after 18 to 24 hrs by CLSI M100-S11 method
Enterococcus faecalis [34] = assay: Antibacterial activity against Enterococcus faecalis 14-2 after 18 to 24 hrs by CLSI M100-S11 method
Enterococcus faecalis [35] = assay: Antibacterial activity against Enterococcus faecalis 14-3 after 18 to 24 hrs by CLSI M100-S11 method
Pseudomonas aeruginosa [36] = assay: Antibacterial activity against Pseudomonas aeruginosa 14-19 after 18 to 24 hrs by CLSI M100-S11 method

Row | SMILES | MIC [1] | MIC (Escherichia coli [2]) | MIC (Escherichia coli [3]) | MIC (Escherichia coli [4]) | MIC (Escherichia coli [5]) | MIC (Escherichia coli [6]) | MIC (Klebsiella pneumoniae [7]) | MIC (Klebsiella pneumoniae [9]) | MIC (Klebsiella pneumoniae [10]) | MIC (Klebsiella pneumoniae [11]) | MIC (Klebsiella pneumoniae [12]) | MIC (Klebsiella pneumoniae [13]) | MIC (Staphylococcus aureus [19]) | MIC (Staphylococcus aureus [20]) | MIC (Staphylococcus aureus [21]) | MIC (Staphylococcus aureus [22]) | MIC (Staphylococcus aureus [23]) | MIC (Staphylococcus aureus [24]) | MIC [25] | MIC [26] | further results
1 | NC[C@H]1/C(=N/OCc2ccccc2)CN1c1nc2c(cc1F)c(=O)c(C(=O)O)cn2-c1nc(N)c(F)cc1F | > 32 µg/mL | 4 µg/mL (≈ 7.41 µM) | 64 µg/mL (≈ 119 µM) | > 128 µg/mL | > 128 µg/mL | > 128 µg/mL | > 128 µg/mL | > 128 µg/mL | > 128 µg/mL | > 128 µg/mL | > 128 µg/mL | > 128 µg/mL | 2 µg/mL (≈ 3.71 µM) | 2 µg/mL (≈ 3.71 µM) | 4 µg/mL (≈ 7.41 µM) | 4 µg/mL (≈ 7.41 µM) | > 128 µg/mL | > 128 µg/mL | > 128 µg/mL | > 128 µg/mL | MIC (Klebsiella pneumoniae [8]): 128 µg/mL (≈ 237 µM); MIC (Pseudomonas aeruginosa [14]): 64 µg/mL (≈ 119 µM); MIC (Pseudomonas aeruginosa [15]): 128 µg/mL (≈ 237 µM); MIC (Pseudomonas aeruginosa [16]): 128 µg/mL (≈ 237 µM); MIC (Pseudomonas aeruginosa [17]): 128 µg/mL (≈ 237 µM); MIC (Pseudomonas aeruginosa [18]): 128 µg/mL (≈ 237 µM); MIC [27]: > 128 µg/mL; MIC [28]: > 128 µg/mL; MIC [29]: > 128 µg/mL; MIC [30]: > 130 µg/mL; MIC (Streptococcus pneumoniae): 64 µg/mL (≈ 119 µM); MIC (Enterococcus faecium [31]): > 128 µg/mL; MIC (Enterococcus faecium [32]): 32 µg/mL (≈ 59.3 µM); MIC (Enterococcus faecalis [33]): > 128 µg/mL; MIC (Enterococcus faecalis [34]): > 128 µg/mL; MIC (Enterococcus faecalis [35]): > 128 µg/mL
2 | NCC1CN(c2nc3c(cc2F)c(=O)c(C(=O)O)cn3-c2nc(N)c(F)cc2F)C/C1=N\OCc1ccccc1 (configuration not stated) | 3.81 µg/mL (≈ 6.88 µM) | 0.5 µg/mL (≈ 0.903 µM) | 8 µg/mL (≈ 14.5 µM) | 128 µg/mL (≈ 231 µM) | 128 µg/mL (≈ 231 µM) | 128 µg/mL (≈ 231 µM) | 64 µg/mL (≈ 116 µM) | 128 µg/mL (≈ 231 µM) | 128 µg/mL (≈ 231 µM) | 128 µg/mL (≈ 231 µM) | 128 µg/mL (≈ 231 µM) | 128 µg/mL (≈ 231 µM) | < 0.008 µg/mL | 0.015 µg/mL (≈ 0.0271 µM) | 0.25 µg/mL (≈ 0.452 µM) | 0.25 µg/mL (≈ 0.452 µM) | 64 µg/mL (≈ 116 µM) | 128 µg/mL (≈ 231 µM) | 64 µg/mL (≈ 116 µM) | 32 µg/mL (≈ 57.8 µM) | MIC (Klebsiella pneumoniae [8]): 32 µg/mL (≈ 57.8 µM); MIC (Pseudomonas aeruginosa [14]): 8 µg/mL (≈ 14.5 µM); MIC (Pseudomonas aeruginosa [15]): 32 µg/mL (≈ 57.8 µM); MIC (Pseudomonas aeruginosa [16]): 32 µg/mL (≈ 57.8 µM); MIC (Pseudomonas aeruginosa [17]): 32 µg/mL (≈ 57.8 µM); MIC (Pseudomonas aeruginosa [18]): 32 µg/mL (≈ 57.8 µM); MIC (Pseudomonas aeruginosa [36]): 32 µg/mL (≈ 57.8 µM); MIC [27]: 32 µg/mL (≈ 57.8 µM); MIC [28]: 16 µg/mL (≈ 28.9 µM); MIC [29]: 32 µg/mL (≈ 57.8 µM); MIC [30]: 32 µg/mL (≈ 57.8 µM); MIC (Streptococcus pneumoniae): 16 µg/mL (≈ 28.9 µM); MIC (Enterococcus faecium [31]): 128 µg/mL (≈ 231 µM); MIC (Enterococcus faecium [32]): 16 µg/mL (≈ 28.9 µM); MIC (Enterococcus faecalis [33]): 8 µg/mL (≈ 14.5 µM); MIC (Enterococcus faecalis [34]): 16 µg/mL (≈ 28.9 µM); MIC (Enterococcus faecalis [35]): 16 µg/mL (≈ 28.9 µM)
3 | C[C@H]1COc2c(N3CCN(C)CC3)c(F)cc3c(=O)c(C(=O)O)cn1c23.C[C@H]1COc2c(N3CCN(C)CC3)c(F)cc3c(=O)c(C(=O)O)cn1c23.O [LEVOFLOXACIN] | 0.25 µg/mL | 0.125 µg/mL | 2 µg/mL | 8 µg/mL | 4 µg/mL | 4 µg/mL | 4 µg/mL | 64 µg/mL | 16 µg/mL | 8 µg/mL | 16 µg/mL | 8 µg/mL | 0.125 µg/mL | 0.25 µg/mL | 0.125 µg/mL | 0.5 µg/mL | 64 µg/mL | 8 µg/mL | 128 µg/mL | 1 µg/mL | MIC [27]: 2 µg/mL; MIC [28]: 32 µg/mL; MIC [29]: 64 µg/mL; MIC [30]: 64 µg/mL; MIC (Enterococcus faecium [31]): 128 µg/mL; MIC (Enterococcus faecium [32]): 1 µg/mL; MIC (Enterococcus faecalis [33]): 16 µg/mL; MIC (Enterococcus faecalis [34]): 32 µg/mL; MIC (Enterococcus faecalis [35]): 64 µg/mL
